{"source": "paper PMC8059561", "about": "“Lowered sensitivity of bitter taste receptors to β-glucosides in bamboo lemurs: an instance of parallel and adaptive functional decline in TAS2R16?” (Proceedings of the Royal Society B: Biological Sciences, 2021)", "key": {"TAS2R16 from P. simus": {"target": "TAS2R16 from P. simus (Prolemur simus, UniProt A0A8C8ZSN9)", "sequence (A0A8C8ZSN9 1-301)": "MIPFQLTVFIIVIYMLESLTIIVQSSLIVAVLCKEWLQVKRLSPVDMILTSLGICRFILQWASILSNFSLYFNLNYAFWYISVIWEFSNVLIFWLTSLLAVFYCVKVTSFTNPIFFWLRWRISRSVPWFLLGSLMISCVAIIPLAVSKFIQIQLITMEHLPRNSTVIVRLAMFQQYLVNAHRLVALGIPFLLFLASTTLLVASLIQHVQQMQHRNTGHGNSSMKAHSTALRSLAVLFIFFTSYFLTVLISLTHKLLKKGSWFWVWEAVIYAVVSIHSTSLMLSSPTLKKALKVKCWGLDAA", "assay": "Calcium assay, HEK293T cells expressing P. simus TAS2R16 with Gα16/gust44", "format": "cell-based"}, "TAS2R16 from H. aureus": {"system": "TAS2R16 from H. aureus", "assay": "Calcium assay, HEK293T cells expressing H. aureus TAS2R16 with Gα16/gust44", "format": "cell-based, Hapalemur aureus"}, "TAS2R16 from H. griseus": {"system": "TAS2R16 from H. griseus", "assay": "Calcium assay, HEK293T cells expressing H. griseus TAS2R16 with Gα16/gust44", "format": "cell-based, Hapalemur griseus"}, "TAS2R16 from L. catta": {"target": "TAS2R16 from L. catta (Lemur catta, UniProt A0A4Y1QJW7)", "sequence (A0A4Y1QJW7 1-301)": "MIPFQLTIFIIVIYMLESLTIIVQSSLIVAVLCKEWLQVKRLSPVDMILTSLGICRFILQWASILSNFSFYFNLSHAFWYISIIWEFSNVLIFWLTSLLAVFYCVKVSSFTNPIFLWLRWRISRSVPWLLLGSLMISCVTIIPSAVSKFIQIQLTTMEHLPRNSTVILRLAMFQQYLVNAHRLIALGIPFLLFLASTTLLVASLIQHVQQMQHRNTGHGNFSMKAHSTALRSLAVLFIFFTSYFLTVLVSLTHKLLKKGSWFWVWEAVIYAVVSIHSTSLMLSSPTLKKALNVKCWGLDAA", "assay": "Calcium assay, HEK293T cells expressing L. catta TAS2R16 with Gα16/gust44", "format": "cell-based", "conditions": "Calcium 4, mean ± s.e.m."}, "TAS2R16 P. simus L144S": {"target": "T1, TAS2R16 P. simus L144S (Prolemur simus, UniProt A0A8C8ZSN9, L144S)", "T1 sequence (A0A8C8ZSN9 1-301 L144S)": "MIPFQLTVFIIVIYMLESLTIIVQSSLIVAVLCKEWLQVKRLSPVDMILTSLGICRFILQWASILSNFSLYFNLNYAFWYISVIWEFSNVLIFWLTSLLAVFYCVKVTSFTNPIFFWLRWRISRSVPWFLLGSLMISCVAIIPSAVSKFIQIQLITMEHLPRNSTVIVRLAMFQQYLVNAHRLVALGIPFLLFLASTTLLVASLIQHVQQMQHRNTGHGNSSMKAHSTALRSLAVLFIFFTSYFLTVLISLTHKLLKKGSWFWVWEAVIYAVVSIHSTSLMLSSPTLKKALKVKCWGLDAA", "assay": "Calcium assay, single-point mutant P. simus L144S TAS2R16", "format": "cell-based"}, "[1]": {"system": "anc-Bamboo lemur T140A /S144L TAS2R16", "assay": "Calcium assay, double mutant anc-Bamboo lemur T140A/S144L (reply to referee)", "format": "cell-based, last common ancestor (LCA) in bamboo lemurs", "conditions": "figure not shown"}, "[2]": {"system": "TAS2R16 orthologue of Varecia variegata", "parameters": "method as in Itoigawa et al., [8]", "conditions": "ref Itoigawa et al., [8]; cited from earlier work"}, "[3]": {"conditions": "HEK293T, Gα16/gust44, Calcium 5, mean ± s.e.m."}}}
{"smiles": "OC[C@H]1O[C@@H](Oc2ccc(O)cc2)[C@H](O)[C@@H](O)[C@@H]1O", "note": "[arbutin]", "values": [{"measurement": "response of TAS2R16 to ligand", "setting": "TAS2R16 from P. simus; at the concentrations used in the assays", "value": "did not show any responses"}, {"measurement": "response of TAS2R16 to ligand", "setting": "TAS2R16 from H. aureus", "value": "did not show any responses"}, {"measurement": "response of TAS2R16 to ligand", "setting": "TAS2R16 from H. griseus", "value": "did not show any responses"}, {"measurement": "EC50", "setting": "TAS2R16 from L. catta", "value": "2.3 ± 0.21", "unit": "mM"}]}
{"smiles": "CC(C)(C#N)O[C@@H]1O[C@H](CO)[C@@H](O)[C@H](O)[C@H]1O", "note": "[linamarin]", "values": [{"measurement": "Amax (maximal signal amplitude, ΔF/F)", "setting": "TAS2R16 from H. aureus; [3]", "value": "0.52 ± 0.041"}, {"measurement": "Amax (maximal signal amplitude, ΔF/F)", "setting": "TAS2R16 from H. griseus; [3]", "value": "0.33 ± 0.031"}]}
{"smiles": "OCc1ccccc1O[C@@H]1O[C@H](CO)[C@@H](O)[C@H](O)[C@H]1O", "note": "[salicin]", "values": [{"measurement": "EC50", "setting": "TAS2R16 from P. simus; HEK293T, Gα16/gust44, Calcium 4", "value": "> 40", "unit": "mM"}, {"measurement": "EC50", "setting": "TAS2R16 from H. aureus; HEK293T, Gα16/gust44, Calcium 4, mean ± s.e.m.", "value": "6.8 ± 1.1", "unit": "mM"}, {"measurement": "EC50", "setting": "TAS2R16 from L. catta", "value": "2.1 ± 0.38", "unit": "mM"}, {"measurement": "EC50", "setting": "TAS2R16 P. simus L144S", "value": "4.3 ± 0.85", "unit": "mM"}, {"measurement": "responses of double mutant compared to single mutant (anc-Bamboo lemur S144L)", "setting": "[1]", "value": "did not show significant reduction"}, {"measurement": "EC50", "setting": "[2]", "value": 3.8, "unit": "mM"}]}
